In brackets after ≈: the same amount, converted by molar mass. Where a name gives a salt, the structure may show the parent alone. Read-outs that look alike come from different tables or passages of the source.
Experiments:
[1] = tested on: patients with recent onset of symptomatic paroxysmal atrial fibrillation; conditions: inhaled, Total of all dose groups (N = 99)
[2] = tested on: Beagle dogs; assay: 14-day repeat dose face mask inhalation toxicity study in dogs; conditions: dog, in vivo
Description: This example describes a 14-day repeated-dose toxicity study via face mask inhalation with 14 day recovery in dogs.
In addition to the aerosol drug concentration, the aerosol particle size distribution was also characterized. The particle size average MMAD and GSD for the Low-, Mid-, and High-dose groups were 2.38 (1.79), 2.03 (1.87) and 2.08 (1.79) microns, respectively, and 1.74 (1.88) microns for vehicle control group. […] Chamber oxygen levels were monitored throughout the exposures. Main study animals were sacrificed on Day 15. Recovery animals were sacrificed on Day 29 following a 14-day recovery period. Endpoints included clinical observations, body weights, ophthalmology, clinical pathology, urinalysis, gross pathology, histopathology, and bioanalytical and toxicokinetic analyses.

[3] = tested on: patients with recent onset of symptomatic paroxysmal atrial fibrillation; assay: FLE-002 (INSTANT) Phase 2 study: conversion of AF to sinus rhythm; assay type: in vivo, human; conditions: within 60 minutes of dosing, evaluable patients
Description: Patient eligibility for this study is generally consistent with eligibility for IV flecainide. 18 years and older, both male and female sexes are eligible for this study. Inclusion and exclusion criteria are summarized in TABLE 18A and TABLE 18B, respectively.
The study consists of 2 parts: Part A and Part B. Part A (dose finding) evaluates the feasibility of administration of IH Flec. Part B will confirm the dose and will include a pilot sub-study to simulate a patient led scenario with medical supervision.
Part A study. […] IH Flec formulations tested in this study include the ones listed in TABLE 19 (*, “CD” denotes a cyclodextrin-based formulation including 10% (w/v) hydroxypropyl β-cyclodextrin, 90 mM acetic acid buffer, and having a pH of 5.2; **, “iCD-SAC” denotes a cyclodextrin-based formulation including 20% β(w/v) hydroxypropyl β-cyclodextrin, 5 mM acetic acid, and 750 μM saccharin, and having a pH of 5.9).
In this study, for inhalation delivery of flecainide, the estimated total lung doses (eTLDs) were calculated to account for losses of flecainide in the inhalation device and losses of flecainide in subjects' mouth and throat. eTLD was thereby used to denote the dose that actually reached the lungs of the subjects. By design, in all nebulizers there can be a residual volume or mass of drug solution that stays in the nebulizer, and there can also be a percentage of the aerosol caught by subject's throat and mouth. For instance, in this study, it was estimated that 30% of the aerosol was lost in subject's throat and mouth. Therefore the eTLD would be: eTLD=(100−30)%*amount of aerosolized drug that left nebulizer=70%*(amount of drug placed in nebulizer−amount of drug staying in nebulizer).
The AeroEclipse®II BAN inhaler was used for nebulization and inhalation of the exemplary flecainide formulations. It is available as an approved device in several countries across the world including European countries, USA, and Canada. […]

[4] = Solubility of flecainide in D/L-lactic acid media; assay type: physicochemical; conditions: thermodynamic from solid
Method: D-lactic acid, L-lactic acid, or DL-lactic acid was slowly added portionwise to the suspension while stirring. The system was left to equilibrate for 30 minutes, and the pH was determined. The pH was then adjusted to 5.2-6 with NaOH if necessary. After addition of NaOH, the system was again left to equilibrate for 30 minutes before pH was measured. After the desired pH was achieved, the suspension was stirred (1000 rpm) at ambient temperature for 48 hours. At 24 hours and 48 hours of stirring, samples of each solution were centrifuged at 10000 rpm for 2 minutes and filtered with a 0.45 μm membrane to obtain supernatant for pH determination and HPLC analysis. Solids from each sample were also characterized by X-ray powder diffraction (XRPD) analysis.

[5] = tested on: patients with recent onset of symptomatic paroxysmal atrial fibrillation; assay: FLE-002 (INSTANT) study: QRS interval from 12-lead ECG; assay type: in vivo, human; conditions: change from baseline
[6] = FLE-002 (INSTANT) study: plasma levels of flecainide (Cmax); assay type: in vivo; conditions: human, inhaled, oral inhalation
[7] = Solubility comparison of different flecainide salts in 0.1M acid media; conditions: for pH: Media (0.1M)
[8] = physchem; conditions: aqueous buffer
[9] = physchem; assay type: physicochemical; conditions: Solubility (mg/mL)
[10] = Viscosity and complexation efficiency of flecainide acetate-HPβCD solutions; assay type: physicochemical; conditions: solutions adjusted to pH 5.2 with NaOH
Description: In this example and the following examples, the (HP)-β-cyclodextrin used is “Cavitron W7 HP7 PHARMA”. The manufacturer (Ashland) specifies: <1.5% beta cyclodextrin (our batch had 1%) and molar substitution is between 0.86 and 1.14 (our batch had 1.05). From the manufacturer's brochure, the typical degree of substitution is 6.0 to 8.0 with an approximate average MW of 1520.
Beyond this concentration, the aerosol output rate can diminish slightly.

[11] = Solubility of flecainide acetate in binary, ternary and quaternary acid mixtures; conditions: acid mixture (acetic/nitric/sulfuric acid), 25 °C, aqueous buffer, thermodynamic from solid
[12] = physchem; conditions: thermodynamic from solid
Description: The suspension was then magnetic stirred (1000 r/min) at RT for 24 hrs or 48 hrs.

[13] = physchem

O=C(NCC1CCCCN1)c1cc(OCC(F)(F)F)ccc1OCC(F)(F)F (stereo not shown) [flecainide]
Adverse events: Cough [1]: 51 (52) n (%)
Adverse events: Dizziness [1]: 5 (5) n (%)
Adverse events: Dysphagia [1]: 9 (9) n (%)
Adverse events: Dyspnea [1]: 6 (6) n (%)
Adverse events: Gastrointestinal disorders [1]: 23 (23) n (%)
Adverse events: Hypotension [1]: 7 (7) n (%)
Adverse events: Nervous system disorders [1]: 7 (7) n (%)
Adverse events: Oropharyngeal pain [1]: 14 (14) n (%)
Adverse events: Respiratory, thoracic and mediastinal disorders [1]: 60 (61) n (%)
Adverse events: Salivary hypersecretion [1]: 8 (8) n (%)
Adverse events: Throat irritation [1]: 12 (12) n (%)
Adverse events: Vascular disorders [1]: 10 (10) n (%)
Patients with at least one TEAE [1]: 80 (81) n (%)
Patients with at least one TEAE, Moderate or Severe [1]: 35 (35) n (%)
Patients with at least one TEAE, Severe [1]: 2 (2) n (%)
Patients with at least one TEAE, Study-drug Related [1]: 74 (75) n (%)
Patients with at least one TESAE [1]: 7 (7) n (%)
Patients with at least one TESAE, Moderate or Severe [1]: 6 (6) n (%)
Patients with at least one TESAE, Severe [1]: 2 (2) n (%)
Patients with at least one TESAE, Study-drug Related [1]: 4 (4) n (%)
clinical observation associated with exposure [2]: labored respiration during or immediately post exposure
Conversion Rate (AF to SR) ([3]; 30 mg eTLD): 1/10 (10%)
Conversion Rate (AF to SR) ([3]; 60 mg eTLD): 7/20 (35%)
Conversion Rate (AF to SR) ([3]; 90 mg eTLD): 7/21 (33%)
solubility at 24 h ([4]; 20% w/v HPβCD in water with D-lactic acid, aqueous with cosolvent or surfactant or cyclodextrin, 20% w/v HPβCD, D-lactic acid, pH 5.8): 84.8 mg/mL (≈ 205 mM)
solubility at 48 h ([4]; 20% w/v HPβCD in water with D-lactic acid, aqueous with cosolvent or surfactant or cyclodextrin, 20% w/v HPβCD, D-lactic acid, pH 5.5): 88.4 mg/mL (≈ 213 mM)
solubility at 24 h ([4]; 20% w/v HPβCD in water with L-lactic acid, aqueous with cosolvent or surfactant or cyclodextrin, 20% w/v HPβCD, L-lactic acid, pH 6.3): 87.6 mg/mL (≈ 211 mM)
solubility at 48 h ([4]; 20% w/v HPβCD in water with L-lactic acid, aqueous with cosolvent or surfactant or cyclodextrin, 20% w/v HPβCD, L-lactic acid, pH 6): 89.3 mg/mL (≈ 216 mM)
solubility at 24 h ([4]; HPβCD solution with DL-lactic acid, aqueous with cosolvent or surfactant or cyclodextrin, 20% w/v HPβCD, DL-lactic acid, pH 6.5): 72.4 mg/mL (≈ 175 mM)
solubility at 24 h ([4]; pure water with D-lactic acid, aqueous buffer, no excipient (pure water), D-lactic acid, pH 5.1): 90.1 mg/mL (≈ 217 mM)
solubility at 48 h ([4]; pure water with D-lactic acid, aqueous buffer, no excipient (pure water), D-lactic acid, pH 5.4): 91 mg/mL (≈ 220 mM)
solubility at 24 h ([4]; pure water with DL-lactic acid, aqueous buffer, no excipient (pure water), DL-lactic acid, pH 6.1): 76.3 mg/mL (≈ 184 mM)
solubility at 48 h ([4]; pure water with DL-lactic acid, aqueous buffer, no excipient (pure water), DL-lactic acid, pH 6): 73.4 mg/mL (≈ 177 mM)
solubility at 24 h ([4]; pure water with L-lactic acid, aqueous buffer, no excipient (pure water), L-lactic acid, pH 5.6): 96.6 mg/mL (≈ 233 mM)
solubility at 48 h ([4]; pure water with L-lactic acid, aqueous buffer, no excipient (pure water), L-lactic acid, pH 5.1): 97.8 mg/mL (≈ 236 mM)
ΔQRSmax ([5]; 30 mg eTLD): 5.5 ± 13.1 ms
ΔQRSmax ([5]; 60 mg eTLD): 4.2 ± 4.6 ms
ΔQRSmax ([5]; 90 mg eTLD): 4.1 ± 3.2 ms
Cmax ([6]; 30 mg, 30 mg eTLD, read-out: Cmax (mean ± SD)): 127 ± 99.5 ng/mL
Cmax ([6]; 30 mg, 30 mg eTLD, read-out: Cmax Range): 5.8 to 69 ng/mL
Cmax ([6]; 60 mg, 60 mg eTLD, read-out: Cmax (mean ± SD)): 199 ± 222 ng/mL
Cmax ([6]; 60 mg, 60 mg eTLD, read-out: Cmax Range): 6.6 to 817 ng/mL
Cmax ([6]; 90 mg, 90 mg eTLD, read-out: Cmax (mean ± SD)): 248 ± 207 ng/mL
Cmax ([6]; 90 mg, 90 mg eTLD, read-out: Cmax Range): 17 to 834 ng/mL

O=C(NCC1CCCCN1)c1cc(OCC(F)(F)F)ccc1OCC(F)(F)F (stereo not shown) [Hydrochloric Acid, flecainide hydrochloride]
pH ([7]; hydrochloride): 5.0
solubility ([8]; Concentration (mg/mL) Freebase): 5.34 mg/mL

flecainide nitrate [Nitric Acid]
pH [7]: 4.0

O=C(NCC1CCCCN1)c1cc(OCC(F)(F)F)ccc1OCC(F)(F)F (stereo not shown) [flecainide acetate]
pH [7]: 4.6
effect of addition of sodium chloride (e.g. saline) to the formulation ([7]; XRPD confirmed form conversion): precipitation and loss of solubility
solubility ([9]; pH 5.3, aqueous with cosolvent or surfactant or cyclodextrin): 55 mg/mL
solubility ([9]; pH 5.5, aqueous with cosolvent or surfactant or cyclodextrin): 69.7 mg/mL
HPβCD molecules complexed with flecainide acetate [10]: 80%
solubility [11]: 82.4 mg/mL
solubility [8]: 64 mg/mL
solubility at 48 h ([12]; aqueous with cosolvent or surfactant or cyclodextrin, 48 hrs Flecainide Acetate Solubility): 110 mg/mL
solubility at 24 h ([12]; aqueous with cosolvent or surfactant or cyclodextrin, maximum solubility, calculated as freebase): 125 mg/mL
solubility at 48 h ([12]; aqueous with cosolvent or surfactant or cyclodextrin, solubility (48 hrs), calculated as freebase): 105 mg/mL
solubility at 48 h ([12]; water, 48 hrs Flecainide Acetate Solubility): 65.5 mg/mL
solubility ([12]; water, solubility of flecainide acetate water solution): ~60 mg/mL
solubility ([13]; HPβCD solution with acetic acid, pH 4.9, aqueous with cosolvent or surfactant or cyclodextrin): 136 mg/mL
solubility ([13]; HPβCD solution with acetic acid, pH 5.1, aqueous with cosolvent or surfactant or cyclodextrin): 135 mg/mL
solubility ([13]; HPβCD solution with acetic acid, pH 5.2, aqueous with cosolvent or surfactant or cyclodextrin): 135 mg/mL
solubility ([13]; HPβCD solution with acetic acid, pH 5.5, aqueous with cosolvent or surfactant or cyclodextrin): 131 mg/mL
solubility ([13]; HPβCD solution without acetic acid, pH 6.3, aqueous with cosolvent or surfactant or cyclodextrin): 125 mg/mL
